Reference: US20130123222A1, “Synergistic Anti-Cancer Activity of SR16388 with Anti-Mitotic Drugs” (SRI INTERNATIONAL, INC., priority 2011, published 2013)

Assays:
HCC2998 = test: 11×7 synergism hit rate; type: cell-based; conditions: Colon Cancer HCC2998, combination with SR16388
From the text: (§1) SR16388 was synthesized in house.
(§2) Within the same type of cancer cells, some cell lines have more synergistic hits than others. Melanoma and breast cancer cell lines had the highest hit rate.

HL60 = test: 11×7 synergism hit rate; type: cell-based; conditions: Leukemia HL60, combination with SR16388
From the text: as §1, §2

HT29 = test: 11×7 synergism hit rate; type: cell-based; conditions: Colon Cancer HT29, combination with SR16388
From the text: as §1, §2

LOXIMVI = test: 11×7 synergism hit rate; type: cell-based; conditions: Melanoma LOXIMVI, combination with SR16388
From the text: as §1, §2

MDAMB231 = test: 11×7 synergism hit rate; type: cell-based; conditions: Breast Cancer MDAMB231, combination with SR16388
From the text: as §1, §2

NCIH226 = test: 11×7 synergism hit rate; type: cell-based; conditions: NSCLC NCIH226, combination with SR16388
From the text: as §1, §2

NCIH460 = test: 11×7 synergism hit rate; type: cell-based; conditions: NSCLC NCIH460, combination with SR16388
From the text: as §1, §2

NCIH522 = test: 11×7 synergism hit rate; type: cell-based; conditions: NSCLC NCIH522, combination with SR16388
From the text: as §1, §2

PCS = test: 11×7 synergism hit rate; type: cell-based; conditions: Prostate Cancer PCS, combination with SR16388
From the text: as §1, §2

RPMI8226 = test: 11×7 synergism hit rate; type: cell-based; conditions: Leukemia RPMI8226, combination with SR16388
From the text: as §1, §2

SKMEL28 = test: 11×7 synergism hit rate; type: cell-based; conditions: Melanoma SKMEL28, combination with SR16388
From the text: as §1, §2

SKMEL5 = test: 11×7 synergism hit rate; type: cell-based; conditions: Melanoma SKMEL5, combination with SR16388
From the text: as §1, §2

SN12C = test: 11×7 synergism hit rate; type: cell-based; conditions: Renal Cancer SN12C, combination with SR16388
From the text: as §1, §2

SNB19 = test: 11×7 synergism hit rate; type: cell-based; conditions: CNS Cancer SNB19, combination with SR16388
From the text: as §1, §2

T47D = test: 11×7 synergism hit rate; type: cell-based; conditions: Breast Cancer T47D, combination with SR16388
From the text: as §1, §2

U031 = test: 11×7 synergism hit rate; type: cell-based; conditions: Renal Cancer U031, combination with SR16388
From the text: as §1, §2

UACC62 = test: 11×7 synergism hit rate; type: cell-based; conditions: Melanoma UACC62, combination with SR16388
From the text: as §1, §2

[1] = system: various cancer cell lines; test: 11×7 synergism hit rate over all cell lines (by algorism); type: cell-based; conditions: for % Hit rate: combination with SR16388, identified by algorism, all cell lines; for interaction with SR16388 in 11×7 experiments: in combination with SR16388
From the text: as §1, §2

cancer cell lines = test: Combination cell viability assay, general observations on ratios and confirmed synergy; type: cell-based; conditions: for interaction with SR16388 (confirmed): in combination with SR16388
Protocol: Cells were treated with compounds alone or in combination for three days and CellTiter-Glo® Luminescent Cell Viability Assay (Promega Corp.) was used as the endpoint to measure cell viability. […] Cells were harvested on Day-1 (FIG. 1A) and re-supspended to the corresponding seeding density and seeded with Wellmate (ThermoFisher) to 384 plates (BD or GBO). […] Master plates were made with Janus (PerkinElmer), then further diluted and added to the cell plates with Matrix Platemate (Thermo) on Day 0. CellTiter-Glo® Luminescent Cell Viability Assay (Promega Corp.) was used to measure ATP as an indicator of viable cells on Day 3 using Envision (PerkinElmer) and back up reader Analyst HT (MDS) and Gen5 (BioTek). Relative Luminescent Units (RLU) were plotted against corresponding drug concentrations and fitted with standard four parameter sigmoidal curve with custom coded R program or Calcusyn (Biosoft, Cambridge, UK).

[2] = system: panel of 48 to 60 cell lines; test: 5×4 combination screen with SR16388, CellTiter-Glo viability; synergy by pattern recognition; conditions: for no effect (number of cell lines) / synergy (number of cell lines) / % synergy: in combination with SR16388, 5x4-T1; for no effect (number of cell lines) / synergy (number of cell lines): pattern recognition, of 60 cell lines incl. no data; for % synergy: share of cell lines with data
Protocol: Cells were treated with compounds alone or in combination for three days and CellTiter-Glo® Luminescent Cell Viability Assay (Promega Corp.) was used as the endpoint to measure cell viability.
Cells were cultured in DMEM with 10% fetal bovine serum and used between passage 2 and passage 20. Cells were harvested on Day-1 (FIG. 1A) and re-supspended to the corresponding seeding density and seeded with Wellmate (ThermoFisher) to 384 plates (BD or GBO).
40 mM Compound stocks in 100% DMSO were made. Master plates were made with Janus (PerkinElmer), then further diluted and added to the cell plates with Matrix Platemate (Thermo) on Day 0.
CellTiter-Glo® Luminescent Cell Viability Assay (Promega Corp.) was used to measure ATP as an indicator of viable cells on Day 3 using Envision (PerkinElmer) and back up reader Analyst HT (MDS) and Gen5 (BioTek).
Single point, 5×4 checkque board platemap was used in the initial screening.
Relative Luminescent Units (RLU) were plotted against corresponding drug concentrations and fitted with standard four parameter sigmoidal curve with custom coded R program or Calcusyn (Biosoft, Cambridge, UK).

[3] = system: panel of 48 to 60 cell lines; test: 5×4 combination screen with SR16388; synergism hit rate by algorithm (Z score); type: cell-based; conditions: in combination with SR16388, all 20 (5×4) dose combinations
Protocol: as §1
5) A “combination score” was assigned to each specific combination (Ca1b1x): C=1 if Za1b1x>3*SD and C=0 if Za1b1x≦3*SD score);
6) Hit rate of each combination was calculated by comparing the sum of the combination scores of all 20 (5×4) dose combinations with all cell lines to the total number of data points of that specific combination;
7) Hit rate were ranked from high to low to identify potential synergistic combinations.

A549 = test: 11×7 synergism hit rate; type: cell-based; conditions: NSCLC A549, combination with SR16388
From the text: as §1

Row | Structure (SMILES) | % Hit rate (HCC2998) [%] | % Hit rate (HL60) [%] | % Hit rate (HT29) [%] | % Hit rate (LOXIMVI) [%] | % Hit rate (MDAMB231) [%] | % Hit rate (NCIH226) [%] | % Hit rate (NCIH460) [%] | % Hit rate (NCIH522) [%] | % Hit rate (PCS) [%] | % Hit rate (RPMI8226) [%] | % Hit rate (SKMEL28) [%] | % Hit rate (SKMEL5) [%] | % Hit rate (SN12C) [%] | % Hit rate (SNB19) [%] | % Hit rate (T47D) [%] | % Hit rate (U031) [%] | % Hit rate (UACC62) [%] | % Hit rate [1] [%] | interaction with SR16388 in 11×7 experiments [1] | interaction with SR16388 (confirmed) (cancer cell lines) | further results
1 | CC(=O)O[C@H]1C(=O)[C@@]2(C)[C@H]([C@H](OC(=O)c3ccccc3)[C@]3(O)C[C@H](OC(=O)[C@H](O)[C@@H](NC(=O)c4ccccc4)c4ccccc4)C(C)=C1C3(C)C)[C@]1(OC(C)=O)CO[C@@H]1C[C@@H]2O [Paclitaxel] | 12 | 25 | 22 | 13 | 21 | 27 | 35 | 10 | 0 | 5 | 35 | 12 | 13 | 27 | 19 | 9 | 25 | 14.88 | synergistic effect | synergistic anti-proliferation effect | interaction with more paclitaxel in the mixture (cancer cell lines; more paclitaxel than SR16388:Paclitaxel 67:33): antagonist interactions; interaction with SR16388 in the screen of 30 cancer therapeutic agents [2]: Synergistic anti-proliferation; no effect (number of cell lines) [2]: 18; synergy (number of cell lines) [2]: 40; % synergy [2]: 69%
2 | CC(=O)O[C@@]12CO[C@@H]1C[C@H](O)[C@@]1(C)C(=O)[C@H](O)C3=C(C)[C@@H](OC(=O)[C@H](O)[C@@H](NC(=O)OC(C)(C)C)c4ccccc4)C[C@@](O)([C@@H](OC(=O)c4ccccc4)[C@H]21)C3(C)C [Docetaxel] | 6 | 21 | 21 | 8 | 10 | 19 | 31 | 8 | 3 | 1 | 31 | 10 | 8 | 18 | 19 | 4 | 16 | 10.69 | synergistic effect | synergistic anti-proliferation effect | % hit/combo [3]: 0.58%; % Hit rate (A549): 4%; interaction with SR16388 in the screen of 30 cancer therapeutic agents [2]: Synergistic anti-proliferation; no effect (number of cell lines) [2]: 51; synergy (number of cell lines) [2]: 7; % synergy [2]: 12%
3 | CC[C@]1(O)C[C@H]2CN(CCc3c([nH]c4ccccc34)[C@@](C(=O)OC)(c3cc4c(cc3OC)N(C=O)[C@H]3[C@@](O)(C(=O)OC)[C@H](OC(C)=O)[C@]5(CC)C=CCN6CC[C@]43[C@@H]65)C2)C1 [Vincristine] | 4 | 5 | 10 | 5 | 17 | 8 | 19 | 10 | 1 | 0 | 22 | 14 | 14 | 27 | 16 | 12 | 23 | 10.91 | synergistic effect | synergistic anti-proliferation effect | % hit/combo [3]: 2.08%; % Hit rate (A549): 10%; interaction with SR16388 in the screen of 30 cancer therapeutic agents [2]: Synergistic anti-proliferation; no effect (number of cell lines) [2]: 19; synergy (number of cell lines) [2]: 23; % synergy [2]: 55%
4 | CC[C@]1(O)C[C@@H]2CN(CCc3c([nH]c4ccccc34)[C@@](C(=O)OC)(c3cc4c(cc3OC)N(C)[C@H]3[C@@](O)(C(=O)OC)[C@H](OC(C)=O)[C@]5(CC)C=CCN6CC[C@]43[C@@H]65)C2)C1 [Vinblastine] | 6 | 16 | 8 | 1 | 1 | 8 | 16 | 4 | 1 | 0 | 8 | 5 | 1 | 12 | 9 | 3 | 10 | 4.94 | synergistic effect |  | % Hit rate (A549): 0%
